This is an account of results in PMC9814550, “Exo-selective intermolecular Diels–Alder reaction by PyrI4 and AbnU on non-natural substrates” (Communications Chemistry, 2021).

One assay addresses T1, AbnU (Parafrankia colletiae, UniProt A0A1S1R073).
T1 construct: gene CC117_14200; N-terminal poly-His tag, pET28a(+), codon-optimised synthetic gene, E. coli; dimer
Description: tryptophan fluorescence quenching (W114). The class given is binding.

In a further assay the target is T2, PyrI4 (Streptomyces rugosporus, UniProt K7QVW7, E65A).
T2 construct: full length, N-terminal poly-His tag, pET28a(+), codon-optimised synthetic gene, E. coli
T2 sequence (K7QVW7 whole entry E65A): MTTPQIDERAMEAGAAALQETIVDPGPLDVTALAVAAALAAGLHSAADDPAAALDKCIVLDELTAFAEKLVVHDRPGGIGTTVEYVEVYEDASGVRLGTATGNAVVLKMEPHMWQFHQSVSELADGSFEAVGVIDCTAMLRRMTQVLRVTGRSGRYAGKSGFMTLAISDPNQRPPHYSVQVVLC
Description: LC-SRM of product 3a. The class given is biochemical. Particulars: co-substrate 2.

Like-named read-outs stand apart in the source and are kept apart here.

T1 sequence (A0A1S1R073 entry or part of it): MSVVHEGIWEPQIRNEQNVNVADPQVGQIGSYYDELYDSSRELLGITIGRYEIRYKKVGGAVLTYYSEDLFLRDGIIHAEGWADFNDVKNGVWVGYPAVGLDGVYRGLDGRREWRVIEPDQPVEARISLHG

The term Kd denotes the concentration at which binding is half-saturated. On to `COC(=O)c1ccc(COC(=O)NC2C=CCCC2C(=O)N(C)C)cc1` (mixture of isomers) [3a], for which the Kd on AbnU (read-out: KD) was 1.01 ± 0.205 mM.
As for `C=C/C=C/NC(=O)OCc1ccc(C(=O)OC)cc1` [1a, diene 1a], the Kd on AbnU (read-out: KD) was found to be 0.729 ± 0.117 mM. At PyrI4, the “LC-SRM of product 3a” value is recorded as “Stereoselectivity is further compromised with E65A mutant”.
Take `C=CC(=O)N(C)C` [compound 2, N,N-dimethylacrylamide]: the Kd at AbnU stood at 6.32 ± 0.28 mM.
